Source: US6737383B1, “Herbicidal oxadiazolidines” (priority 1999, dated 2004)

What was measured:
common pursiane = experiment: Test D common purslane; assay type: in vivo, Portulaca oleracea; conditions: Preemergence, 0 to 100 scale, 0 no injury, 100 complete control
From the text: (§1) Seeds, tubers, or plant parts of Alexandergrass (Brachiaria plantaginea), bermuda-grass (Cynodon dactylon), common pursiane (Portulaca oleracea), common ragweed (Ambrosia elatior), common groundsel (Senecio vulgaris), dallisgrass (Paspalum dilatatum), goosegrass (Eleusine indica), guineagrass (Panicum maximum), itchgrass (Rottboellia exaltata), Johnson grass (Sorghum halepense), large crabgrass (Digitaria sanguinalis), pitted morningglory (Ipomoea lacunosa), purple nutsedge (Cyperus rotundus), sandbur (Cenchrus echinatus), sourgrass (Trichachne insularis), Spanishneedles (Bidens bipinnata), surinam grass (Brachiaria decumbens) and tall mallow (Malva sylvestris) were planted into greenhouse pots of flats containing greenhouse planting medium. Plant species were grown in separate pots or individual compartments. Preemergence applications were made within one day of planting the seed or plant part.
(§2) Test chemicals were formulated in a non-phytotoxic solvent mixture which included a surfactant and applied preemergence to the surface of the pot containing seeds in a sandy loam soil. Untreated control pots and treated pots were placed in the greenhouse for growth and visually evaluated for injury 14 to 21 days after herbicide application. Plant response ratings, summarized in Table C, are based on a 0 to 100 scale where 0 is no injury and 100 is complete control. A dash (−) response means no test result.

common ragweed = experiment: Test D common ragweed; assay type: in vivo, Ambrosia elatior; conditions: Preemergence, 0 to 100 scale, 0 no injury, 100 complete control
How it was run: (§3)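 Greenhouse pots, seeds in sandy loam; compounds formulated in non-phytotoxic solvent with surfactant; preemergence treatments went on the soil surface within one day of planting. Injury rated visually 14 to 21 days after application on a 0 (none) to 100 (complete control) scale.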

common groundsel = experiment: Test D common groundsel; assay type: in vivo, Senecio vulgaris; conditions: Preemergence, 0 to 100 scale, 0 no injury, 100 complete control
From the text: as §1, §2

dallisgrass = experiment: Test D dallisgrass; assay type: in vivo, Paspalum dilatatum; conditions: Preemergence, 0 to 100 scale, 0 no injury, 100 complete control
How it was run: as §3

goosegrass = experiment: Test D goosegrass; assay type: in vivo, Eleusine indica; conditions: Preemergence, 0 to 100 scale, 0 no injury, 100 complete control
How it was run: as §3

guineagrass = experiment: Test D guineagrass; assay type: in vivo, Panicum maximum; conditions: Preemergence, 0 to 100 scale, 0 no injury, 100 complete control
How it was run: as §3

itchgrass = experiment: Test D itchgrass; assay type: in vivo, Rottboellia exaltata; conditions: Preemergence, 0 to 100 scale, 0 no injury, 100 complete control
From the text: as §1, §2

large crabgrass = experiment: Test D large crabgrass; assay type: in vivo, Digitaria sanguinalis; conditions: Preemergence, 0 to 100 scale, 0 no injury, 100 complete control
How it was run: as §3

pitted morningglory = experiment: Test D pitted morningglory; assay type: in vivo, Ipomoea lacunosa; conditions: Preemergence, 0 to 100 scale, 0 no injury, 100 complete control
From the text: as §1
as §2, with “Plant response ratings, summarized in Table C, are based on a 0 to 100 scale where 0 is no injury and 100 is complete control.” left out

purple nutsedge = experiment: Test D purple nutsedge; assay type: in vivo, Cyperus rotundus; conditions: Preemergence, 0 to 100 scale, 0 no injury, 100 complete control
From the text: as §1, §2

Spanishneedles = experiment: Test D Spanishneedles; assay type: in vivo, Bidens bipinnata; conditions: Preemergence, 0 to 100 scale, 0 no injury, 100 complete control
From the text: as §1, §2

surinam grass = experiment: Test D surinam grass; assay type: in vivo, Brachiaria decumbens; conditions: Preemergence, 0 to 100 scale, 0 no injury, 100 complete control
From the text: as §1, §2

tall mallow = experiment: Test D tall mallow; assay type: in vivo, Malva sylvestris; conditions: Preemergence, 0 to 100 scale, 0 no injury, 100 complete control
From the text: as §1, §2

Green foxtail = experiment: Test D green foxtail; assay type: in vivo
How it was run: as §3

barnyardgrass = experiment: Test A barnyardgrass; assay type: in vivo, Echinochloa crus-galli; conditions: 0 to 10 scale where 0 is no effect and 10 is complete control
How it was run: (§4)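 Injury scored visually after about eleven greenhouse days against untreated plants, 0 = no effect, 10 = complete control. Compounds, formulated in surfactant-containing non-phytotoxic solvent, were applied as preemergence soil drench to sandy loam plantings and as postemergence runoff spray at the 1–2 leaf stage.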

crabgrass = experiment: Test A crabgrass; assay type: in vivo, Digitaria spp.; conditions: 0 to 10 scale where 0 is no effect and 10 is complete control
How it was run: as §4

morningglory = experiment: Test A morningglory; assay type: in vivo, Ipomoea spp.; conditions: 0 to 10 scale where 0 is no effect and 10 is complete control
How it was run: as §4

[1] = Rate 64 g/ha, Preemergence; 0 to 100 scale, 0 no injury, 100 complete control
[2] = Rate 125 g/ha, Preemergence; 0 to 100 scale, 0 no injury, 100 complete control

CC(C)N(C(=O)n1oc(=O)n(C(C)C)c1=O)c1ccccc1 [Compound 113]
Plant response rating, C. purslane (common pursiane; Rate 16 g/ha): 0
Plant response rating, C. purslane (common pursiane; Rate 32 g/ha): 0
Plant response rating, C. purslane (common pursiane; Rate 64 g/ha): 0
Plant response rating, C. purslane (common pursiane; Rate 125 g/ha): 0
Plant response rating, C. ragweed (common ragweed; Rate 16 g/ha): 0
Plant response rating, C. ragweed (common ragweed; Rate 32 g/ha): 0
Plant response rating, C. ragweed (common ragweed; Rate 64 g/ha): 0
Plant response rating, C. ragweed (common ragweed; Rate 125 g/ha): 0
Plant response rating, Com. groundsel (common groundsel; Rate 16 g/ha): 0
Plant response rating, Com. groundsel (common groundsel; Rate 32 g/ha): 65
Plant response rating, Com. groundsel (common groundsel; Rate 64 g/ha): 100
Plant response rating, Com. groundsel (common groundsel; Rate 125 g/ha): 100
Plant response rating, Dallisgrass (dallisgrass; Rate 16 g/ha): 0
Plant response rating, Dallisgrass (dallisgrass; Rate 32 g/ha): 95
Plant response rating, Dallisgrass (dallisgrass; Rate 64 g/ha): 100
Plant response rating, Dallisgrass (dallisgrass; Rate 125 g/ha): 100
Plant response rating, Goosegrass (goosegrass; Rate 16 g/ha): 90
Plant response rating, Goosegrass (goosegrass; Rate 32 g/ha): 100
Plant response rating, Goosegrass (goosegrass; Rate 64 g/ha): 100
Plant response rating, Goosegrass (goosegrass; Rate 125 g/ha): 100
Plant response rating, Guineagrass (guineagrass; Rate 16 g/ha): 85
Plant response rating, Guineagrass (guineagrass; Rate 32 g/ha): 100
Plant response rating, Guineagrass (guineagrass; Rate 64 g/ha): 100
Plant response rating, Guineagrass (guineagrass; Rate 125 g/ha): 100
Plant response rating, Itchgrass (itchgrass; Rate 16 g/ha): 10
Plant response rating, Itchgrass (itchgrass; Rate 32 g/ha): 40
Plant response rating, Itchgrass (itchgrass; Rate 64 g/ha): 50
Plant response rating, Itchgrass (itchgrass; Rate 125 g/ha): 60
Plant response rating, Large crabgrass (large crabgrass; Rate 16 g/ha): 85
Plant response rating, Large crabgrass (large crabgrass; Rate 32 g/ha): 100
Plant response rating, Large crabgrass (large crabgrass; Rate 64 g/ha): 100
Plant response rating, Large crabgrass (large crabgrass; Rate 125 g/ha): 100
Plant response rating, P. morninglory (pitted morningglory; Rate 16 g/ha): 10
Plant response rating, P. morninglory (pitted morningglory; Rate 32 g/ha): 10
Plant response rating, P. morninglory (pitted morningglory; Rate 64 g/ha): 10
Plant response rating, P. morninglory (pitted morningglory; Rate 125 g/ha): 10
Plant response rating, Purple nutsedge (purple nutsedge; Rate 16 g/ha): 0
Plant response rating, Purple nutsedge (purple nutsedge; Rate 32 g/ha): 0
Purple nutsedge plant response rating (purple nutsedge; Rate 64 g/ha): 20
Purple nutsedge plant response rating (purple nutsedge; Rate 125 g/ha): 30
Plant response rating, Spanishneedles (Spanishneedles; Rate 16 g/ha): 0
Plant response rating, Spanishneedles (Spanishneedles; Rate 32 g/ha): 0
Spanishneedles plant response rating (Spanishneedles; Rate 64 g/ha): 0
Spanishneedles plant response rating (Spanishneedles; Rate 125 g/ha): 0
Plant response rating, Surinam grass (surinam grass; Rate 16 g/ha): 85
Plant response rating, Surinam grass (surinam grass; Rate 32 g/ha): 90
Surinam grass plant response rating (surinam grass; Rate 64 g/ha): 98
Surinam grass plant response rating (surinam grass; Rate 125 g/ha): 100
Plant response rating, Tall Mallow (tall mallow; Rate 16 g/ha): 0
Plant response rating, Tall Mallow (tall mallow; Rate 32 g/ha): 0
Tall Mallow plant response rating (tall mallow; Rate 64 g/ha): 0
Tall Mallow plant response rating (tall mallow; Rate 125 g/ha): 30
Plant response rating, Green foxtail (Green foxtail; Preemergence; Rate 16 g/ha; 0 to 100 scale, 0 no injury, 100 complete control): 80
Plant response rating, Green foxtail (Green foxtail; Preemergence; Rate 32 g/ha; 0 to 100 scale, 0 no injury, 100 complete control): 98
Plant response rating, Green foxtail (Green foxtail; Rate 16 g/ha; Preemergence; 0 to 100 scale, 0 no injury, 100 complete control): 80
Plant response rating, Green foxtail (Green foxtail; Rate 32 g/ha; Preemergence; 0 to 100 scale, 0 no injury, 100 complete control): 70
Green foxtail plant response rating (Green foxtail; [1]): 100
Plant response rating, Green foxtail (Green foxtail; [1]): 100
Green foxtail plant response rating (Green foxtail; [2]): 100
Plant response rating, Green foxtail (Green foxtail; [2]): 100

C=CCn1c(=O)on(C(=O)N(c2ccc(F)cc2F)C2CC2)c1=O [Compound 127]
Plant response rating, Barnyardgrass (barnyardgrass; Postemergence, Rate 1000 g/ha): 6
Plant response rating, Barnyardgrass (barnyardgrass; Pre-emergence, Rate 2000 g/ha): 9
Plant response rating, Crabgrass (crabgrass; Postemergence, Rate 1000 g/ha): 7
Plant response rating, Crabgrass (crabgrass; Pre-emergence, Rate 2000 g/ha): 8
Plant response rating, Morningglory (morningglory; Postemergence, Rate 1000 g/ha): 0
Plant response rating, Morningglory (morningglory; Pre-emergence, Rate 2000 g/ha): 0
